Legend:
Type in all cases: in vivo
corn (Zea mays) = test: Test B pre-/postemergence plant response
Summary of the method: (§1)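 Seeds sown in loam–sand blend were treated preemergence, and plants at 2–18 cm (1- to 4-leaf stage) in peat-based medium were treated postemergence; compounds were formulated in non-phytotoxic solvent with surfactant. After 13–15 days in greenhouse, response was visually rated against controls, 0 (no effect) to 100 (complete control).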

[1] = test system: yellow nutsedge (Cyperus esculentus); test: Test B pre-/postemergence plant response
Summary of the method: as §1

[2] = test system: velvetleaf (Abutilon theophrasti); test: Test B pre-/postemergence plant response
Summary of the method: as §1

soybean (Glycine max) = test: Test B pre-/postemergence plant response
Summary of the method: as §1

[3] = test system: johnsongrass (Sorghum halepense); test: Test B pre-/postemergence plant response
Summary of the method: as §1

[4] = test system: lambsquarters (Chenopodium album); test: Test B pre-/postemergence plant response
Summary of the method: as §1

[5] = test system: pigweed (Amaranthus retroflexus); test: Test B pre-/postemergence plant response
Summary of the method: as §1

[6] = test system: giant foxtail (Setaria faberii); test: Test B pre-/postemergence plant response
Summary of the method: as §1

[7] = test system: green foxtail (Setaria viridis); test: Test B pre-/postemergence plant response
Summary of the method: as §1

[8] = test system: goosegrass (Eleusine indica); test: Test B pre-/postemergence plant response
Summary of the method: as §1

[9] = test system: winter barley (Hordeum vulgare); test: Test B postemergence plant response
Summary of the method: (§2)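 Plants at the 1- to 4-leaf stage (2 to 18 cm tall), grown in pots of peat moss/vermiculite medium with wetting agent and starter nutrients, received postemergence applications of test chemicals. After 13 to 15 days in a greenhouse, injury was rated visually against untreated controls on a 0 (no effect) to 100 (complete control) scale.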

[10] = test system: windgrass (Apera spica-venti); test: Test B postemergence plant response
Summary of the method: as §2

[11] = test system: canarygrass (Phalaris minor); test: Test B postemergence plant response
Summary of the method: as §2

[12] = test system: chickweed (Stellaria media); test: Test B postemergence plant response
Summary of the method: as §2

[13] = 250 g ai/ha, Preemergence, 0 to 100 scale
[14] = Postemergence, 62 g ai/ha, scale 0 (no effect) to 100 (complete control), 13 to 15 days
[15] = Postemergence, 125 g ai/ha, visual rating after 13 to 15 days, scale 0 (no effect) to 100 (complete control)
[16] = Postemergence, 250 g ai/ha, scale 0 to 100 (0 no effect, 100 complete control)
[17] = Preemergence, 31 g ai/ha, scale 0 to 100 (0 no effect, 100 complete control)
[18] = Preemergence, 62 g ai/ha, scale 0 to 100 (0 no effect, 100 complete control)
[19] = Preemergence, 125 g ai/ha, scale 0 to 100, 0 no effect, 100 complete control
[20] = 31 g ai/ha, postemergence, scale 0 to 100, 0 is no effect, 100 is complete control

Q: How did the “Plant response rating, Corn” value (corn (Zea mays); [13]) turn out when `CCCCc1ncc(C(=O)C2=C(O)CCCC2=O)c(=O)n1-c1cccc(C)c1` [Compound 63] was run?
A: Its value is 0.

Q: What about the “Plant response rating, Corn” value (corn (Zea mays); [14]) of the same molecule?
A: Its value is 20.

Q: And the “Plant response rating, Corn” value (corn (Zea mays); [15])?
A: Its value is 25.

Q: And the “Plant response rating, Corn” value (corn (Zea mays); [16])?
A: Its value is 45.

Q: And the “Plant response rating, Corn” value (corn (Zea mays); [17])?
A: Its value is 0.

Q: What about the “Plant response rating, Corn” value (corn (Zea mays); [18]) of the same molecule?
A: Its value is 0.

Q: What about the “Plant response rating, Corn” value (corn (Zea mays); [19]) of the same molecule?
A: Its value is 0.

Q: What about the “Plant response rating, Nutsedge, Yellow” value [1, 20] of the same molecule?
A: Its value is 20.

Q: What about the “Plant response rating, Nutsedge, Yellow” value [1, 14] of the same molecule?
A: Its value is 20.

Q: What about the “Plant response rating, Nutsedge, Yellow” value [1, 15] of the same molecule?
A: Its value is 50.

Q: What about the “Plant response rating, Nutsedge, Yellow” value [1, 16] of the same molecule?
A: Its value is 60.

Q: And the “Plant response rating, Nutsedge, Yellow” value [1, 17]?
A: The value was 10.

Q: And the “Plant response rating, Nutsedge, Yellow” value [1, 18]?
A: Its value is 15.

Q: And the “Plant response rating, Nutsedge, Yellow” value [1, 19]?
A: The value was 25.

Q: And the “Plant response rating, Velvetleaf” value [2, 20]?
A: Its value is 95.

Q: What about the “Plant response rating, Velvetleaf” value [2, 14] of the same molecule?
A: The value was 98.

Q: And the “Plant response rating, Velvetleaf” value [2, 15]?
A: Its value is 98.

Q: What about the “Plant response rating, Velvetleaf” value [2, 16] of the same molecule?
A: Its value is 98.

Q: What about the “Plant response rating, Velvetleaf” value [2, 17] of the same molecule?
A: Its value is 75.

Q: What about the “Plant response rating, Velvetleaf” value [2, 18] of the same molecule?
A: Its value is 90.

Q: And the “Plant response rating, Velvetleaf” value [2, 19]?
A: Its value is 100.

Q: What about the “Plant response rating, Soybean” value (soybean (Glycine max); [20]) of the same molecule?
A: The value was 75.

Q: What about the “Plant response rating, Soybean” value (soybean (Glycine max); [14]) of the same molecule?
A: Its value is 75.

Q: What about the “Plant response rating, Soybean” value (soybean (Glycine max); [15]) of the same molecule?
A: The value was 85.

Q: And the “Plant response rating, Soybean” value (soybean (Glycine max); [16])?
A: The value was 85.

Q: What about the “Plant response rating, Soybean” value (soybean (Glycine max); [17]) of the same molecule?
A: The value was 0.

Q: And the “Plant response rating, Soybean” value (soybean (Glycine max); [18])?
A: Its value is 0.

Q: And the “Plant response rating, Soybean” value (soybean (Glycine max); [19])?
A: Its value is 5.

Q: What about the “Plant response rating, Johnsongrass” value [3, 13] of the same molecule?
A: Its value is 60.

Q: What about the “Plant response rating, Johnsongrass” value [3, 14] of the same molecule?
A: The value was 10.

Q: What about the “Plant response rating, Johnsongrass” value [3, 15] of the same molecule?
A: The value was 10.

Q: What about the “Plant response rating, Johnsongrass” value [3, 16] of the same molecule?
A: The value was 15.

Q: And the “Plant response rating, Johnsongrass” value [3, 17]?
A: The value was 0.

Q: What about the “Plant response rating, Johnsongrass” value [3, 18] of the same molecule?
A: Its value is 0.

Q: What about the “Plant response rating, Johnsongrass” value [3, 19] of the same molecule?
A: The value was 55.

Q: And the “Plant response rating, Lambsquarters” value [4, 13]?
A: The value was 100.

Q: And the “Plant response rating, Lambsquarters” value [4, 14]?
A: The value was 95.

Q: What about the “Plant response rating, Lambsquarters” value [4, 15] of the same molecule?
A: Its value is 98.

Q: And the “Plant response rating, Lambsquarters” value [4, 16]?
A: The value was 98.

Q: What about the “Plant response rating, Lambsquarters” value [4, 17] of the same molecule?
A: The value was 98.

Q: And the “Plant response rating, Lambsquarters” value [4, 18]?
A: Its value is 98.

Q: And the “Plant response rating, Lambsquarters” value [4, 19]?
A: The value was 100.

Q: And the “Plant response rating, Pigweed” value [5, 20]?
A: The value was 85.

Q: What about the “Plant response rating, Pigweed” value [5, 14] of the same molecule?
A: Its value is 95.

Q: And the “Plant response rating, Pigweed” value [5, 15]?
A: The value was 95.

Q: And the “Plant response rating, Pigweed” value [5, 16]?
A: Its value is 100.

Q: What about the “Plant response rating, Pigweed” value [5, 17] of the same molecule?
A: Its value is 95.

Q: What about the “Plant response rating, Pigweed” value [5, 18] of the same molecule?
A: The value was 98.

Q: And the “Plant response rating, Pigweed” value [5, 19]?
A: Its value is 100.

Q: What about the “Plant response rating, Foxtail, Giant” value [6, 20] of the same molecule?
A: The value was 60.

Q: And the “Plant response rating, Foxtail, Giant” value [6, 13]?
A: Its value is 10.

Q: And the “Plant response rating, Foxtail, Giant” value [6, 14]?
A: The value was 65.

Q: And the “Plant response rating, Foxtail, Giant” value [6, 15]?
A: The value was 65.

Q: And the “Plant response rating, Foxtail, Giant” value [6, 16]?
A: Its value is 80.

Q: What about the “Plant response rating, Foxtail, Giant” value [6, 17] of the same molecule?
A: Its value is 0.

Q: And the “Plant response rating, Foxtail, Giant” value [6, 18]?
A: The value was 0.

Q: What about the “Plant response rating, Foxtail, Giant” value [6, 19] of the same molecule?
A: The value was 0.

Q: What about the “Plant response rating, Foxtail, Green” value [7, 20] of the same molecule?
A: Its value is 60.

Q: And the “Plant response rating, Foxtail, Green” value [7, 13]?
A: The value was 30.

Q: What about the “Plant response rating, Foxtail, Green” value [7, 14] of the same molecule?
A: Its value is 70.

Q: What about the “Plant response rating, Foxtail, Green” value [7, 15] of the same molecule?
A: The value was 70.

Q: And the “Plant response rating, Foxtail, Green” value [7, 16]?
A: Its value is 90.

Q: And the “Plant response rating, Foxtail, Green” value [7, 17]?
A: Its value is 0.

Q: What about the “Plant response rating, Goosegrass” value [8, 20] of the same molecule?
A: Its value is 70.

Q: And the “Plant response rating, Goosegrass” value [8, 13]?
A: The value was 100.

Q: What about the “Plant response rating, Goosegrass” value [8, 14] of the same molecule?
A: The value was 70.

Q: And the “Plant response rating, Goosegrass” value [8, 15]?
A: The value was 70.

Q: And the “Plant response rating, Goosegrass” value [8, 16]?
A: The value was 75.

Q: And the “Plant response rating, Goosegrass” value [8, 17]?
A: The value was 90.

Q: And the “Plant response rating, Goosegrass” value [8, 18]?
A: Its value is 98.

Q: What about the “Plant response rating, Goosegrass” value [8, 19] of the same molecule?
A: The value was 100.

Q: And the “Plant response rating, Barley” value [9, 20]?
A: The value was 0.

Q: And the “Plant response rating, Barley” value [9, 14]?
A: The value was 0.

Q: What about the “Plant response rating, Barley” value [9, 15] of the same molecule?
A: The value was 0.

Q: What about the “Plant response rating, Barley” value [9, 16] of the same molecule?
A: The value was 0.

Q: And the “Plant response rating, Windgrass” value [10, 20]?
A: The value was 10.

Q: And the “Plant response rating, Windgrass” value [10, 14]?
A: Its value is 30.

Q: And the “Plant response rating, Windgrass” value [10, 15]?
A: Its value is 40.

Q: And the “Plant response rating, Windgrass” value [10, 16]?
A: Its value is 60.

Q: And the “Plant response rating, Canarygrass” value [11, 20]?
A: Its value is 0.

Q: What about the “Plant response rating, Canarygrass” value [11, 14] of the same molecule?
A: The value was 0.

Q: And the “Plant response rating, Canarygrass” value [11, 15]?
A: Its value is 0.

Q: What about the “Plant response rating, Canarygrass” value [11, 16] of the same molecule?
A: Its value is 0.

Q: And the “Plant response rating, Chickweed” value [12, 20]?
A: Its value is 60.

Q: And the “Plant response rating, Chickweed” value [12, 14]?
A: Its value is 65.

Q: And the “Plant response rating, Chickweed” value [12, 15]?
A: The value was 80.

Q: And the “Plant response rating, Chickweed” value [12, 16]?
A: The value was 95.

Source: patent US8952024B2, “Herbicidal pyrimidone derivatives” (E I du Pont de Nemours and Company, priority 2009, dated 2015)
